Measurements from ChEMBL document CHEMBL1201862, “PubChem BioAssay data set” (2004).
The source made the active and inactive calls.

How the values were obtained:
[1] = biological target: Serine/threonine-protein kinase Nek2 (Homo sapiens, UniProt P51955); type: functional
[2] = biological target: Heat shock protein HSP 90-alpha (Homo sapiens, UniProt P07900); assay: Luminescence-based dose response biochemical high throughput screening assay for inhibitors of the Heat Shock Protein 90 (HSP90). [Related pubchem assays: 1831 (Summary AID.), 1846 (Confirmation screen.), 1789 (Primary screen.)]
Beta-galactosidase = Beta-galactosidase (Escherichia coli, UniProt Q8VNN2); assay: beta-galactosidase enzyme inhibitors and activators, dose response, artefact control for CCR6 antagonist project, biochemical, E. coli enzyme, set 3 (AID 504712); type: functional
Sequence of Beta-galactosidase (Q8VNN2 whole entry): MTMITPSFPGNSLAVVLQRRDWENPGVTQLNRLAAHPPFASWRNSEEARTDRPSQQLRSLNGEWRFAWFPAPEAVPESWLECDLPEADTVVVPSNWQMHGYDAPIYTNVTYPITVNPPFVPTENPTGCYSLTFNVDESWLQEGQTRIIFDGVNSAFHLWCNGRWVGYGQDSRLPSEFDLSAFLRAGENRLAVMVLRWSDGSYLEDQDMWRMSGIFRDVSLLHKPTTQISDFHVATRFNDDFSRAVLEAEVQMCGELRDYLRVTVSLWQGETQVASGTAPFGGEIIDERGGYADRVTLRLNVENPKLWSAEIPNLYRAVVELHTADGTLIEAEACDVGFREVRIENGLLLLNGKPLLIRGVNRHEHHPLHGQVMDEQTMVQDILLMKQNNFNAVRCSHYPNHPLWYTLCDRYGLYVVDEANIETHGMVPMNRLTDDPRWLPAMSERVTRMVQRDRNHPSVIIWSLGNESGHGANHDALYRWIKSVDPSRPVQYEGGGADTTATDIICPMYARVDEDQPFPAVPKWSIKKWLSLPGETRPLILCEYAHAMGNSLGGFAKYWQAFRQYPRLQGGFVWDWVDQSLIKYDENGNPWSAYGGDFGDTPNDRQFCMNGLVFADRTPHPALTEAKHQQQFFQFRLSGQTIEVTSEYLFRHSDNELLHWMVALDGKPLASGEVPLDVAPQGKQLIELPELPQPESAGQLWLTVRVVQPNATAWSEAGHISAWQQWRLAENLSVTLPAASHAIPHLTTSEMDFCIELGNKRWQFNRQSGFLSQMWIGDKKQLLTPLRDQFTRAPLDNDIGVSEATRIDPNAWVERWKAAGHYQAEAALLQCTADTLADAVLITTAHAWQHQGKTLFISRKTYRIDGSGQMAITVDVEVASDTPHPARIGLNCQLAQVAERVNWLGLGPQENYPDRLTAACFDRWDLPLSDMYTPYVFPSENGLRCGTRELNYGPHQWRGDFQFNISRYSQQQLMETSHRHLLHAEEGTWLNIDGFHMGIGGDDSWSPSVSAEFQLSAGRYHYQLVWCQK

[3] = biological target: Mitochondrial peptide methionine sulfoxide reductase (Bos taurus, UniProt P54149); type: functional;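 note: absorbance read-out, biochemical high-throughput dose-response screen for MsrA inhibitors, confirmatory; recombinant bovine MsrA coupled to E. coli TrxB with NADPH and selenocystamine; potency is for inhibitors of MsrA activity on DMSO substrate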
Sequence of Mitochondrial peptide methionine sulfoxide reductase (P54149 whole entry): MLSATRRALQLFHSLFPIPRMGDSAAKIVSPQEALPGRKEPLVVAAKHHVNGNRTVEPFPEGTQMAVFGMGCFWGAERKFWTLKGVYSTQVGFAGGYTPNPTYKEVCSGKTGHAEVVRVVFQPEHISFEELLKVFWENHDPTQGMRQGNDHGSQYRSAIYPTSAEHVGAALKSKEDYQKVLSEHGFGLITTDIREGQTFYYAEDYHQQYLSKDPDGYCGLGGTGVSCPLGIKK

[4] = biological target: Rho-associated protein kinase 2 (Homo sapiens, UniProt O75116); type: functional
Sequence of Rho-associated protein kinase 2 (O75116 whole entry): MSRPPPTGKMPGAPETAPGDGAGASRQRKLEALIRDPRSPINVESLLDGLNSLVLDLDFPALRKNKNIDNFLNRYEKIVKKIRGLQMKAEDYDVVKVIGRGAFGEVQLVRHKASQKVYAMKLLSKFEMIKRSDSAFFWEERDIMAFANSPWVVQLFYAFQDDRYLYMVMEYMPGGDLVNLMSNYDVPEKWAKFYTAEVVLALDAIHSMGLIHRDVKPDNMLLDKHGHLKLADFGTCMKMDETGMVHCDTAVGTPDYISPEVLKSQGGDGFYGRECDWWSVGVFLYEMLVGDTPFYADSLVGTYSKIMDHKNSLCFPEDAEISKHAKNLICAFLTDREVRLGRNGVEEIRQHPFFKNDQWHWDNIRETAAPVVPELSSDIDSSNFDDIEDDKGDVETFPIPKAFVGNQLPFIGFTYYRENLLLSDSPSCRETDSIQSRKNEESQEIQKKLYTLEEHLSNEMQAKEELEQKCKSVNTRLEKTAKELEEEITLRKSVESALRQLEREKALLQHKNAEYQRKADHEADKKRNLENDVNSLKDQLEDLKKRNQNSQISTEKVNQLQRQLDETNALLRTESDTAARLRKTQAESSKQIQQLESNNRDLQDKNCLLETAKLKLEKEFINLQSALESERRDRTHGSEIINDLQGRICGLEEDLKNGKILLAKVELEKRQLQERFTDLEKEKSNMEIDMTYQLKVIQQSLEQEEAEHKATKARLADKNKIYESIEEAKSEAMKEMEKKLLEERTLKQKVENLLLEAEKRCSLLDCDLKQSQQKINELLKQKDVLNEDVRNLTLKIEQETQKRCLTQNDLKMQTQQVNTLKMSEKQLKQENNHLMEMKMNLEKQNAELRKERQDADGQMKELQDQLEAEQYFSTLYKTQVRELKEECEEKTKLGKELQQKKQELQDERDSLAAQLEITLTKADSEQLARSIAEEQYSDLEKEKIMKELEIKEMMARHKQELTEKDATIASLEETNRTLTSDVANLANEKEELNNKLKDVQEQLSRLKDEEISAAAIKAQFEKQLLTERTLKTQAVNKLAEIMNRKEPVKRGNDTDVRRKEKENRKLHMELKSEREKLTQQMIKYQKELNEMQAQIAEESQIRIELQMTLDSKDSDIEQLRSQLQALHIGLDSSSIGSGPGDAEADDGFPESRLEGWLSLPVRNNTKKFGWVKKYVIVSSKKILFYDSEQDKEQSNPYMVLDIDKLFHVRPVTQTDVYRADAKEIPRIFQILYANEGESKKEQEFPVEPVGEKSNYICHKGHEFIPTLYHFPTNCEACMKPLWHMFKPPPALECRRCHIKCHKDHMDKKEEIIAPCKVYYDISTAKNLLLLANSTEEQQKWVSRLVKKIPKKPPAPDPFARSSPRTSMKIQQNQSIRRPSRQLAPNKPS

[5] = biological target: Mitogen-activated protein kinase 10 (Homo sapiens, UniProt P53779); assay: Navigating the Kinome. Panel member name: MAPK10; type: functional
Sequence of Mitogen-activated protein kinase 10 (P53779 whole entry): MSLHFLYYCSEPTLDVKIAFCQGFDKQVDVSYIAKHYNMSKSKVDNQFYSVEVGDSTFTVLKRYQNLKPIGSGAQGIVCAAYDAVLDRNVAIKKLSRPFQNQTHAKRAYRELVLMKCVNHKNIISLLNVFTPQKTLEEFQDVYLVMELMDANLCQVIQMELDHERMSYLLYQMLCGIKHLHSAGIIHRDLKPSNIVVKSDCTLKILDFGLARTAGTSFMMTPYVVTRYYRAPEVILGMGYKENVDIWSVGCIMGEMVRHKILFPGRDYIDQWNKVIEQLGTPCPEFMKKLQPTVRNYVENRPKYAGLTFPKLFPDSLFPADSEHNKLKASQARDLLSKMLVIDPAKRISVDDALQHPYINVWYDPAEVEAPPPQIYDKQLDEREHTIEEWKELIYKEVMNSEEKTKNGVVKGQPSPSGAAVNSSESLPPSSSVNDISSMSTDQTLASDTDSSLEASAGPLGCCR

BJ = assay: cells; type: functional, cell-based; settings: Homo sapiens
[6] = M. tuberculosis H37Rv growth inhibitors, H37Rv strain (AID 1626); type: functional
[7] = cytotoxicity toward DRD oncogenic fibroblasts, dose response, cell-based, non-viral oncogenic, luminescence (AID 1934); type: functional; settings: Homo sapiens
P388/ADR = assay: cells; type: functional; settings: Mus musculus
SN12K1 = assay: cells; type: functional; settings: Homo sapiens
[8] = biological target: Tyrosyl-DNA phosphodiesterase 2 (Homo sapiens, UniProt O95551); assay: human TDP2 enzyme inhibitors, dose response, biochemical, epi absorbance, IC50 (AID 743297)
Sequence of Tyrosyl-DNA phosphodiesterase 2 (O95551 whole entry): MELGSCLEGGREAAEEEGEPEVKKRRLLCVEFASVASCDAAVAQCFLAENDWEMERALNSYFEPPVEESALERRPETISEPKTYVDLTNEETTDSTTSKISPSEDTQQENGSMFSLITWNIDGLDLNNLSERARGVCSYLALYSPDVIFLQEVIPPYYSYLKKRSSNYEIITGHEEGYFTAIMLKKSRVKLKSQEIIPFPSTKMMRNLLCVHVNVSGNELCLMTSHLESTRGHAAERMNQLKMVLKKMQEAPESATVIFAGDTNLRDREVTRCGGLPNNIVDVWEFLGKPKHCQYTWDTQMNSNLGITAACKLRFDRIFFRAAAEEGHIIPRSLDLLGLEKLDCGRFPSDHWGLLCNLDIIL

Sequence of Serine/threonine-protein kinase Nek2 (P51955 whole entry): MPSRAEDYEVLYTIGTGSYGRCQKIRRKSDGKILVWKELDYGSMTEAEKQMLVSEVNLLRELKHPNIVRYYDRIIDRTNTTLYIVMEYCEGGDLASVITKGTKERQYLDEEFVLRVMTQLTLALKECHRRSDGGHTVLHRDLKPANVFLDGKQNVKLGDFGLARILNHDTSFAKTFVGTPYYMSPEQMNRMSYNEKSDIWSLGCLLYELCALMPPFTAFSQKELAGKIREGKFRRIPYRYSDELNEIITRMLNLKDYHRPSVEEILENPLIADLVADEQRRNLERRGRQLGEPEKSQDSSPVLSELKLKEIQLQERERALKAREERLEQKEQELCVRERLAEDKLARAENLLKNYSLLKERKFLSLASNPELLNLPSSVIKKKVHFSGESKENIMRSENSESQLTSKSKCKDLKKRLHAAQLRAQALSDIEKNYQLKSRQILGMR

With `O=C(Nc1cccc(C(F)(F)F)n1)Nc1ccnc2cc(OC(F)F)ccc12` the Ki [1] was > 3.16 µM (inactive).

In the case of `Cc1cc(C)c(S(=O)(=O)/N=C2\C=C(Nc3ccc(C(=O)O)cc3)C(=O)c3ccccc32)c(C)c1`, the IC50 [2] is reported as 1.68 µM (active), the IC50 (Beta-galactosidase) is reported as 36.1 µM (active) and the IC50 [3] is reported as 44.8 µM (inactive).

In the case of `CCC1CC(NS(=O)(=O)C2CC2)CC1c1ncc2cnc3[nH]ccc3n12` (configuration not stated), the Ki [4] is reported as 0.0126 µM (active) and the Ki [5] is reported as > 3.16 µM (inactive).

In the case of `COC(=O)c1nc(-c2ccc3c(n2)C(=O)C(=N)C(OC)=C3O)c(N)c(-c2ccc(OC)c(OC)c2O)c1C`, the EC50 (BJ) is reported as 4.56 µM (active), the IC50 [6] is reported as > 100 µM (active) and the EC50 [7] is reported as 13.9 µM (active). The GI50 (P388/ADR) was 1.4 µM (inactive) and the GI50 (SN12K1) was 0.537 µM (active).

For `O=C(Cc1ccccc1)NC1(O)C(=O)c2ccccc2C1=O`, the IC50 [8] was 13.2 µM (inactive).
